The results in this text go back to US9029414B2, “Triterpenoid compounds and methods of use thereof” (Biotechnology Research Corporation, priority 2008, dated 2015).

In one assay the target is EP2 receptor (Homo sapiens, UniProt P43116). The assay can be described thus: Radioligand competition binding assay, EP2. The note with it: EP2, target PGE2; compound at 10 μM in duplicate; read-out: % inhibition of control specific binding. Here is the method:
(§1) DA001 was further evaluated against 32 receptor binding assays. Radioligand competition assays were conducted whereby DA001 was tested at one concentration (10 uM) in duplicate. […] It could compete with the radioligand [^3H] PGE2 binding at the EP1 and EP4 receptors, and weakly competed with the EP2 and FP receptors.
(§2) To determine the targets of DA compounds, the compound was assessed in binding assays for the family of prostanoid receptors. Both compounds were tested at a single concentration (10 μM) in duplicate. DA001 and DA021 inhibit the ligand binding of prostaglandin E2 receptors EP1, EP2 and EP4 and moderately to prostaglandin (PGF) to its receptor (FP), but not prostaglandin I (PGI2), thromoboxane A and prostaglandin D2 to their receptors.

The target of the next assay is EP4 receptor (Homo sapiens, UniProt P35408). Nature of the assay: Radioligand competition binding assay, EP4. The note with it: EP4, target PGE2; compound at 10 μM in duplicate; read-out: % inhibition of control specific binding. Here is the method:
as §1, §2
(In general: In a radioligand displacement assay an active substance lowers the binding of a labelled ligand.)

Assay [1] deals with MOG-induced IFN-γ in primary splenocytes. Nature of the assay: IFN-γ Quantikine ELISA in primary splenocytes of EAE mice. Format: cell-based. The note with it: for Reduction in IFN-γ, % Reduction: splenocytes of EAE mice dosed 100 mg/kg orally daily vs MOG + Vehicle; for IFN-γ, Average / level of IFN-γ: splenocytes of EAE mice dosed 100 mg/kg orally daily, exogenous MOG; for decrease of IFN-γ in response to exogenous compound: splenocytes of compound-treated EAE mice (100 mg/kg); for decrease of IFN-γ in response to exogenous compound / reduction in the amount of MOG-induced IFN-γ: exogenous compound 30 μM, MOG 25 μg/mL; for reduction in the amount of MOG-induced IFN-γ: splenocytes of vehicle-treated EAE mice, 48 hrs. Here is the method:
On day 21, EAE mice were sacrificed by cervical dislocation and spleens were removed aseptically. The removed spleens were then cut with sterilized scissors and strained through […] mesh (BD Bioscience) with a plunger of 5 mL syringe (BD Bioscience) in 9 mL of RPMI 1640 (Invitrogen) with 100 U/mL penicillin and 100 μg/mL streptomycin (Sigma). The cell mixture was then added to 9 mL of Lympholyte (Cedarlane Laboratories) for gradient separation of splenocytes from red bloods cells by centrifugation at 1500 g for 20 min. After the centrifugation, the lympholyte layer containing splenocytes were carefully removed and washed with 10 mL of RPMI 1640 at 800 g for 10 min for three times. The isolated splenocytes were seeded onto different plate format and cultured with RPMI 1640 medium (Invitrogen) supplement with 10% heat inactivated fetal bovine serum (Invitrogen) and 100 U/mL penicillin and 100 μg/mL streptomycin at 37° C. CO2 incubator.
Splenocytes from EAE mice were cultured at the density of 1×10^6 cells in 12-well plates (Falcon) in the absence or presence of the MOG peptide (25 μg/mL) (Hooke Laboratories), DA001 and DA021 (30 μM) with RPMI 1640 medium (Invitrogen) supplement with 10% heat inactivated fetal bovine serum (Invitrogen) and 100 U/mL penicillin and 100 μg/mL streptomycin (Sigma) for 48 h. After 48 h, the supernatants were collected by pelleting the cells at 300 g for 10 min at 4° C. 50 μL of the each sample was added to the microtiter plate provided by the manufacturer of the Quantikine ELISA assay kit (R and D systems). Additional 50 μL of assay diluents buffer was added and incubated at room temperature for 2 h. After the incubation, the supernatants were discarded and the cells were washed with wash buffer. 100 μL of conjugate was added to the cells and the plate was again incubated at room temperature for 2 h. After another washing, 100 μL of substrate solution was added followed by 30 min incubation at room temperature. Subsequently, 100 μL of stop solution was added to each well and the plate was read in 450 nm wavelength on a microplate reader (Dynex Revelation 2.2).
Cytokines are believed to be one of the key signaling molecules in disease progression of EAE. Autoimmune response observed in the EAE model is believed to be mediated via the Th1 pathway, and interferon-gamma (IFN-γ) is the hallmark cytokine of the Th1 immune response. Therefore, it is critical to examine the efficacy of the compounds in modulating the levels of cytokines in EAE mice. To this end, splenocytes isolated from the spleens of EAE mice were cultured and treated with exogenous MOG peptide and the amount of IFN-γ was measured in response to exogenous DA001 and DA021 (30 μM) treatments using ELISA.
The cells were cultured in RPMI 1640 medium supplement with 10% heat inactivated fetal bovine serum and penicillin/streptomycin, in the absence or presence of MOG (25 μg/mL, Ex) with or without DA001 or DA021 (30 μM, Ex). Supernatants were collected after 48 hrs and IFN-γ Quantikine ELISA assay kit (R and D systems) was used according to the manufacturer's protocol. The amount of IFN-γ was calculated based on the standard curve established during the assay. The graph presented is the composite of two separate trials with duplicate samples in each trial. ***=p≦0.0001, **=p≦0.001, *=p≦0.01.
Cells were cultured in RPMI 1640 medium supplement with 10% heat inactivated fetal bovine serum and penicillin/streptomycin, in the absence or presence of MOG (25 μg/mL) with or without DA001 (30 μM). Supernatants were collected after 48 hrs and IFN-γ Quantikine ELISA assay kit (R and D systems) was used according to the manufacturer's protocol. The amount of IFN-γ was calculated based on the standard curve established during the assay. The graph presented is the composite of two separate trials with duplicate samples in each trial. ***=p≦0.0001. […]
On the technique in general: In an ELISA, binding on a coated surface is turned into a signal by an enzyme label.

In another assay the target is IP receptor (Homo sapiens, UniProt P43119). The assay can be described thus: Radioligand competition binding assay, IP. To be noted: target PGI, compound at 10 μM in duplicate, read-out: % inhibition of control specific binding. Here is the method:
as §1, §2

Sequence of EP2 receptor (P43116 whole entry): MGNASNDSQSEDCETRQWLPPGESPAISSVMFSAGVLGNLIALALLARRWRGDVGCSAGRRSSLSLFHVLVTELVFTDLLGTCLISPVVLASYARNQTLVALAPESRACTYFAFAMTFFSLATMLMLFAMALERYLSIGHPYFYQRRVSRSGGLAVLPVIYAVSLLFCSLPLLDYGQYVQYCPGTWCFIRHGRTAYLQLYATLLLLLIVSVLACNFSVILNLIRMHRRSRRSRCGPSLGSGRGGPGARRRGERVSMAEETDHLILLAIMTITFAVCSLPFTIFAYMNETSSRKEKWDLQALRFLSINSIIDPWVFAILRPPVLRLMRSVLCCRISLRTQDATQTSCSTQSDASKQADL
Sequence of IP receptor (P43119 whole entry): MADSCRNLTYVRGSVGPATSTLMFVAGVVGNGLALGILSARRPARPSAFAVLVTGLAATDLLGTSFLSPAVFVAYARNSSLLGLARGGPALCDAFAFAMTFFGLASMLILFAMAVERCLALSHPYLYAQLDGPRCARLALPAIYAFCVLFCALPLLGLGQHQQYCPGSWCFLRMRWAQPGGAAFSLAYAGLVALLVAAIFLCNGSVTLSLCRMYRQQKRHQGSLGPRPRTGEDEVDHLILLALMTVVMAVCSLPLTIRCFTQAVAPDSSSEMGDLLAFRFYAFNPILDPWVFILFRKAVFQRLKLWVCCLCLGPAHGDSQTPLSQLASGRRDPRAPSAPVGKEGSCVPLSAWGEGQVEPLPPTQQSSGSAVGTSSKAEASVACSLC
Sequence of EP4 receptor (P35408 whole entry): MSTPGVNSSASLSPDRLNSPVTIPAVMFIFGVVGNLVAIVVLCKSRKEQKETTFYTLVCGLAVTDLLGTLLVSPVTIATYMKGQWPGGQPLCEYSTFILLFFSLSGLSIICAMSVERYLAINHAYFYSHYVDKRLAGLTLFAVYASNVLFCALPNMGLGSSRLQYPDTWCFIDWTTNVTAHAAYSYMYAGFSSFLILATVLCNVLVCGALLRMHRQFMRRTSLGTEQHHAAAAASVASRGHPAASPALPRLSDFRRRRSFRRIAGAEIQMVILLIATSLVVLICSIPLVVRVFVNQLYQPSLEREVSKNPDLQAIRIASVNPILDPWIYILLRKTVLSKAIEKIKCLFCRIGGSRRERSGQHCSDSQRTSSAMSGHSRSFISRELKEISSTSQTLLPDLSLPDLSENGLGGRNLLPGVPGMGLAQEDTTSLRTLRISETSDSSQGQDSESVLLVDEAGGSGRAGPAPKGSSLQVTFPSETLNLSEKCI

The term inhibition denotes the change of the read-out against control, counted positive when it falls. As for `C=C(C)[C@@H]1CC[C@]2(C(=O)O)CC[C@]3(C)C(CC[C@@H]4[C@@]5(C)CC[C@H](O[C@@H]6OC[C@H](O)[C@H](O)[C@H]6O[C@@H]6O[C@@H](C)[C@H](O)[C@@H](O)[C@H]6O)[C@@](C)(CO)[C@@H]5CC[C@]43C)[C@@H]12` (stereo partly drawn) [DA001, 3-O-[α-L-rhamnopyranosyl-(1→2)-α-L-arabinopyranosyl]-3,23-dihydroxy-20(29)-lupen-28-oic acid], on EP2 receptor, the inhibition at 10 µM worked out at 31%. Also, on EP4 receptor, the inhibition at 10 µM came to 49%. Besides, in assay [1], the “Reduction in IFN-γ, % Reduction” value is on record as 83.1%; the “IFN-γ, Average” value is reported as 105.7 ± 5.1 ρg/mL; the “level of IFN-γ” value came out at 105 pg/mL; the “decrease of IFN-γ in response to exogenous compound” value is listed as 91%. Besides, the “reduction in the amount of MOG-induced IFN-γ” value in assay [1] came out at 71%. Also, the inhibition at 10 µM on IP receptor was found to be 0%.

Consider `C=C(C)[C@@H]1CC[C@]2(/C=N/O)CC[C@]3(C)C(CCC4[C@@]5(C)CCC(=O)[C@@](C)(CO)[C@@H]5CC[C@]43C)C12` (stereo partly shown) [DA021], for which, at EP2 receptor, the inhibition at 10 µM was determined as 42%. In addition, the inhibition at 10 µM at EP4 receptor was determined as 36%. Besides, in assay [1], the “Reduction in IFN-γ, % Reduction” value is given as 78.3%; the “IFN-γ, Average” value was 135.3 ± 12.3 ρg/mL; the “level of IFN-γ” value worked out at 135 pg/mL; the “decrease of IFN-γ in response to exogenous compound” value is listed as 78%. Further, the “reduction in the amount of MOG-induced IFN-γ” value in assay [1] turned out to be 62%. Further, on IP receptor, the inhibition at 10 µM came out at 9%.
